Assay [1] deals with T1, recombinant human adrenergic beta 1 receptors (Homo sapiens, UniProt P08588).
T1 construct: purchased Euroscreen
The assay can be described thus: Adrenergic β1 selectivity assay, [125I]-Iodocyanopindolol binding to membranes. Conditions: inhibition of [125I]-Iodocyanopindolol binding, read-out: β1 bind pIC50 (converted). An outline of the steps:
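Displacement of [^125I]-Iodocyanopindolol (0.036 nM final) from human β1 receptor membranes, 2 hours at room temperature, pH 7.4 HEPES/EDTA/NaCl buffer. After filtration, scintillation counting; NSB set with 10 μM propranolol and subtracted. Four-parameter logistic fitting gave pIC50.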

In assay [2] the target is T2, recombinant human Dopamine Subtype D2s receptors (Homo sapiens, UniProt P14416).
T2 construct: purchased Perkin Elmer
The assay can be described thus: Dopamine D2 selectivity assay, [3H]-spiperone binding to membranes. Conditions: inhibition of [3H]-spiperone binding, read-out: D2 bind pIC50 (converted). An outline of the steps:
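Human D2s receptor membranes incubated 2 h at room temperature with 0.16 nM [3H]-spiperone and test compound in HEPES buffer pH 7.4 (120 mM NaCl, 0.1% gelatin). Non-specific binding defined with 10 μM haloperidol; filter-bound radioactivity counted, pIC50 from four-parameter logistic fit.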

Where a name gives a salt, the structure may show the parent alone.

We go through nine compounds from US20100056508A1, “AMINE DERIVATIVES AND THEIR USE IN BETA-2-ADRENORECEPTOR MEDIATED DISEASES” (ASTRAZENECA AB, priority 2006, published 2010).

T1 sequence (P08588 whole entry): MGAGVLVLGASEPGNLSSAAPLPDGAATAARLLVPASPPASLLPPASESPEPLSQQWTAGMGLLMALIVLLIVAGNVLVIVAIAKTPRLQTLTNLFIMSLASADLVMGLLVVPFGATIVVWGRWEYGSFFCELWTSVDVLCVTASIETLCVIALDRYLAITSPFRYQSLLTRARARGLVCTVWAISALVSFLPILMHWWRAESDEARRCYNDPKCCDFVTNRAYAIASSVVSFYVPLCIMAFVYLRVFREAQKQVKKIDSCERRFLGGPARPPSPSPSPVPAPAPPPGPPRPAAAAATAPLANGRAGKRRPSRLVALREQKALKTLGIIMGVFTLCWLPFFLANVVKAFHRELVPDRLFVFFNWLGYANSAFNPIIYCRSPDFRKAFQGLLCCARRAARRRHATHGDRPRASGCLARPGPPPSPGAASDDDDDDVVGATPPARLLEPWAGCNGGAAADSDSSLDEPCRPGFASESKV
T2 sequence (P14416 1-414 isoform P14416-2): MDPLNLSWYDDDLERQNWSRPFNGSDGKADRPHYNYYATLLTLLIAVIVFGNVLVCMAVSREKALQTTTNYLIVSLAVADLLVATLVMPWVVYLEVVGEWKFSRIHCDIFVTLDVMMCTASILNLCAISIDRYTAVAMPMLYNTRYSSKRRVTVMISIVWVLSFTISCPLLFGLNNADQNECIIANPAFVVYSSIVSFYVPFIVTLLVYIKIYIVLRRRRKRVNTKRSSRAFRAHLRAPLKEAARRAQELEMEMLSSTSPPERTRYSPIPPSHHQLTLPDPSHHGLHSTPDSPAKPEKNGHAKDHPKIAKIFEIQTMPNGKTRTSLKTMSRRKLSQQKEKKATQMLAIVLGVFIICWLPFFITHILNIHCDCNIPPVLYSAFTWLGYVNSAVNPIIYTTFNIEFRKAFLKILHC

As to `CCCC[C@@H](C)N(CCNCCc1ccc(O)c2c1OCC(=O)N2)C(=O)CCNCCc1cc(F)cc(F)c1` [Example 51, (R)-3-(3,5-Difluorophenethylamino)-N-(hexan-2-yl)-N-(2-(2-(5-hydroxy-3-oxo-3,4-dihydro-2H-benzo[b][1,4]oxazin-8-yl)ethylamino)ethyl)propanamide bis(trifluoroacetate)], the values for the IC50 in assay [1] and in assay [2] were 2000 nM and 39.8 nM, respectively.
In the same order, the values of `CCCC[C@@H](C)N(CCNCCc1ccc(O)c2c1OCC(=O)N2)C(=O)CCNCCc1ccc(F)c(F)c1` [Example 52, (R)-3-(3,4-Difluorophenethylamino)-N-(hexan-2-yl)-N-(2-(2-(5-hydroxy-3-oxo-3,4-dihydro-2H-benzo[b][1,4]oxazin-8-yl)ethylamino)ethyl)propanamide bis(trifluoroacetate)] are 1580 nM and 63.1 nM.
For `CCCC[C@@H](C)N(CCNCCc1ccc(O)c2c1OCC(=O)N2)C(=O)CCNCCc1cccc(F)c1F` [Example 53, (R)-3-(2,3-Difluorophenethylamino)-N-(hexan-2-yl)-N-(2-(2-(5-hydroxy-3-oxo-3,4-dihydro-2H-benzo[b][1,4]oxazin-8-yl)ethylamino)ethyl)propanamide bis(trifluoroacetate)], the IC50 is 2510 nM in assay [1] and 39.8 nM in assay [2].
In the case of `CCCC[C@@H](C)N(CCNCCc1ccc(O)c2c1OCC(=O)N2)C(=O)CCNCCc1cc(F)ccc1F` [Example 54, (R)-3-(2,5-Difluorophenethylamino)-N-(hexan-2-yl)-N-(2-(2-(5-hydroxy-3-oxo-3,4-dihydro-2H-benzo[b][1,4]oxazin-8-yl)ethylamino)ethyl)propanamide bis(trifluoroacetate)], the IC50 was 2000 nM in assay [1] and 31.6 nM in assay [2].
The matching figures for `CCCC[C@@H](C)N(CCNCCc1ccc(O)c2c1OCC(=O)N2)C(=O)CCNCCc1ccc(Cl)c(Cl)c1` [Example 55, (R)-3-(3,4-Dichlorophenethylamino)-N-(hexan-2-yl)-N-(2-(2-(5-hydroxy-3-oxo-3,4-dihydro-2H-benzo[b][1,4]oxazin-8-yl)ethylamino)ethyl)propanamide bis(trifluoroacetate)]: 1000 nM and 50.1 nM.
In the same order, the values of `CCCC[C@@H](C)N(CCNCCc1ccc(O)c2c1OCC(=O)N2)C(=O)CCNCCc1cc(C)ccc1F` [Example 56, (R)-3-(2-Fluoro-5-methylphenethylamino)-N-(hexan-2-yl)-N-(2-(2-(5-hydroxy-3-oxo-3,4-dihydro-2H-benzo[b][1,4]oxazin-8-yl)ethylamino)ethyl)propanamide bis(trifluoroacetate)] are 2000 nM and 31.6 nM.
On to `CCCC[C@@H](C)N(CCNCCc1ccc(O)c2c1OCC(=O)N2)C(=O)CCNCCc1cc(F)ccc1C` [Example 57, (R)-3-(5-Fluoro-2-methylphenethylamino)-N-(hexan-2-yl)-N-(2-(2-(5-hydroxy-3-oxo-3,4-dihydro-2H-benzo[b][1,4]oxazin-8-yl)ethylamino)ethyl)propanamide bis(trifluoroacetate)], for which the IC50 in assay [1] is 1580 nM; in assay [2] it was 15.8 nM.
The matching figures for `CC[C@@H](C)N(CCNCCc1ccc(O)c2c1OCC(=O)N2)C(=O)CCNCCc1ccc(Cl)c(Cl)c1` [Example 58, (R)—N-sec-Butyl-3-(3,4-dichlorophenethylamino)-N-(2-(2-(5-hydroxy-3-oxo-3,4-dihydro-2H-benzo[b][1,4]oxazin-8-yl)ethylamino)ethyl)propanamide dihydrochloride]: 2000 nM and 39.8 nM.
The matching figures for `CC(C)[C@@H](C)N(CCNCCc1ccc(O)c2c1OCC(=O)N2)C(=O)CCNCCc1ccc(Cl)c(Cl)c1` [Example 59, (R)-3-(3,4-Dichlorophenethylamino)-N-(2-(2-(5-hydroxy-3-oxo-3,4-dihydro-2H-benzo[b][1,4]oxazin-8-yl)ethylamino)ethyl)-N-(3-methylbutan-2-yl)propanamide dihydrochloride]: 2000 nM and 100 nM.
